Assay results published in patent publication US20230218666A1, “ANTIMICROBIAL COMBINATIONS” (MARVELBIOTICS LIMITED, priority 2020, published 2023).
Several values for one entry are separate records, joined by “and”; a condition that tells them apart may be missing. Equal values may be shown once.

Columns and labels:
Lactobacillus plantarum [1] = assay: Phase 2c: survival of Lactobacillus plantarum after 30 minutes, 4 hours and 24 hours contact; assay type: cell-based; settings: for Minimum concentration at which growth was observed (%): single agent, n = 3; for Growth observed after recovering viable Lactobacillus plantarum: replicates 1.1-3.2
Method: Three concentrations of each test agent were prepared following the results of Phase 2b. […] Testing was performed in triplicate.

Lactobacillus plantarum [2] = assay: Phase 2a: survival of Lactobacillus plantarum after 24 hours contact at stock concentrations
Method: Twenty-four-hour cultures of L. plantarum were harvested from MRSA and used to prepare a 1×10^8±5×10^7 CFUmL^−1 suspension in MRSB. The starting inoculum was confirmed by serial dilution and plating out the resultant suspensions. […] A 50 μL aliquot of each test agent was added to the wells of a 96-well plate. A 50 μL aliquot of L. plantarum inoculum was then added to the test agent and pipette mixed. The 96-well plates were incubated for 24 hours at 37° C.±2° C. and 5% CO2. Following incubation, 100 μL of DE-N was added to each well and pipette mixed. A 10 μL aliquot of each neutralised suspension was taken from each well and spot-plated onto MRSA. The plates were incubated for 24 hours at 37° C.±2° C. and 5% CO2. Following incubation, the presence or absence of growth on the plates was recorded. Testing was performed in triplicate.

Lactobacillus plantarum [3] = assay: Phase 2b: survival of Lactobacillus plantarum after 24 hours contact at a range of concentrations; settings: for Minimum concentration at which growth was observed (%): single agent, n = 3; for Growth observed after recovering viable Lactobacillus plantarum: 24 hours, replicates 1.1-3.2
Method: Twenty-four-hour cultures of L. plantarum were harvested from MRSA and used to prepare a 1×10^8±5×10^7 CFUmL^−1 suspension in MRSB. The starting inoculum was confirmed by serial dilution and plating out the resultant suspensions. […] Each test agent was diluted 1:2 a total of eight times. A 50 μL aliquot of each test agent dilution was added to the wells of a 96-well plate. A 50 μL aliquot of L. plantarum inoculum was added to the test agent and pipette mixed. The 96-well plates were incubated for 24 hours at 37° C.±2° C. and 5% CO2. Following incubation, 100 μL of DE-N was added to each well and pipette mixed. A 10 μL aliquot of each neutralised suspension was taken from each well and spot-plated onto MRSA. The plates were incubated for 24 hours at 37° C.±2° C. and 5% CO2. Following incubation, the presence or absence of growth on the plates was recorded. Testing was performed in triplicate.

## Copper gluconate
Lactobacillus plantarum [1]; 30 minutes contact time
  concentration at which consistent growth was observed across all replicates: ≤ 4.083%
  Minimum concentration at which growth was observed (%): 8.167%
Lactobacillus plantarum [1]; 4 hours contact time
  Minimum concentration at which growth was observed (%): 0.510%
Lactobacillus plantarum [1]; 24 hours contact time
  Minimum concentration at which growth was observed (%): 0.255%
Lactobacillus plantarum [1]; concentration 0.128 %, 24 hours
  Growth observed after recovering viable Lactobacillus plantarum: +
Lactobacillus plantarum [1]; concentration 0.255 %, 4 hours
  Growth observed after recovering viable Lactobacillus plantarum: +
Lactobacillus plantarum [1]; concentration 0.255 %, 24 hours
  Growth observed after recovering viable Lactobacillus plantarum: +
Lactobacillus plantarum [1]; concentration 0.510 %, 4 hours
  Growth observed after recovering viable Lactobacillus plantarum: +
Lactobacillus plantarum [1]; concentration 0.510 %, 24 hours
  Growth observed after recovering viable Lactobacillus plantarum: −
Lactobacillus plantarum [1]; concentration 0.510 %, 24 hours, listed as copper gluconate
  Growth observed after recovering viable Lactobacillus plantarum: unable to survive
Lactobacillus plantarum [1]; concentration 1.021 %, 4 hours
  Growth observed after recovering viable Lactobacillus plantarum: −
Lactobacillus plantarum [1]; concentration 1.021 %, 4 hours, listed as copper gluconate
  Growth observed after recovering viable Lactobacillus plantarum: unable to survive
Lactobacillus plantarum [1]; concentration 2.042 %, 30 minutes
  Growth observed after recovering viable Lactobacillus plantarum: +
Lactobacillus plantarum [1]; concentration 4.084 %, 30 minutes
  Growth observed after recovering viable Lactobacillus plantarum: +
Lactobacillus plantarum [1]; concentration 8.167 %, 30 minutes
  Growth observed after recovering viable Lactobacillus plantarum: − (4×) and + (2×)
Lactobacillus plantarum [1]; concentration 8.167 %, 30 minutes, listed as copper gluconate
  Growth observed after recovering viable Lactobacillus plantarum: Growth was observed in two of three replicates
Lactobacillus plantarum [2]; stock concentration 8.167 %, n = 3
  Growth: No
Lactobacillus plantarum [2]; stock concentration 8.167 %, n = 3, listed as copper gluconate
  Growth: No growth of L. plantarum was observed
Lactobacillus plantarum [3]; 24 hours contact time
  Minimum concentration at which growth was observed (%): 0.255%
Lactobacillus plantarum [3]; concentration 0.064 %
  Growth observed after recovering viable Lactobacillus plantarum: +
Lactobacillus plantarum [3]; concentration 0.128 %
  Growth observed after recovering viable Lactobacillus plantarum: +
Lactobacillus plantarum [3]; concentration 0.255 %
  Growth observed after recovering viable Lactobacillus plantarum: +
Lactobacillus plantarum [3]; concentration 0.510 %
  Growth observed after recovering viable Lactobacillus plantarum: −
Lactobacillus plantarum [3]; concentration 1.021 %
  Growth observed after recovering viable Lactobacillus plantarum: −
Lactobacillus plantarum [3]; concentration 2.042 %
  Growth observed after recovering viable Lactobacillus plantarum: −
Lactobacillus plantarum [3]; concentration 4.084 %
  Growth observed after recovering viable Lactobacillus plantarum: −
Lactobacillus plantarum [3]; concentration 8.167 %
  Growth observed after recovering viable Lactobacillus plantarum: −

## Zinc gluconate
Lactobacillus plantarum [1]; 30 minutes contact time
  Minimum concentration at which growth was observed (%): 6.326%
Lactobacillus plantarum [1]; 30 minutes contact time, listed as zinc gluconate
  Minimum concentration at which growth was observed (%): ≤ 6.326%
Lactobacillus plantarum [1]; 4 hours contact time
  Minimum concentration at which growth was observed (%): 6.326%
Lactobacillus plantarum [1]; 4 hours contact time, listed as zinc gluconate
  Minimum concentration at which growth was observed (%): ≤ 6.326%
Lactobacillus plantarum [1]; 24 hours contact time
  Minimum concentration at which growth was observed (%): 6.326%
Lactobacillus plantarum [1]; 24 hours contact time, listed as zinc gluconate
  Minimum concentration at which growth was observed (%): ≤ 6.326%
Lactobacillus plantarum [1]; concentration 1.5815 %, 30 minutes
  Growth observed after recovering viable Lactobacillus plantarum: +
Lactobacillus plantarum [1]; concentration 1.5815 %, 4 hours
  Growth observed after recovering viable Lactobacillus plantarum: +
Lactobacillus plantarum [1]; concentration 1.5815 %, 24 hours
  Growth observed after recovering viable Lactobacillus plantarum: +
Lactobacillus plantarum [1]; concentration 3.163 %, 30 minutes
  Growth observed after recovering viable Lactobacillus plantarum: +
Lactobacillus plantarum [1]; concentration 3.163 %, 4 hours
  Growth observed after recovering viable Lactobacillus plantarum: +
Lactobacillus plantarum [1]; concentration 3.163 %, 24 hours
  Growth observed after recovering viable Lactobacillus plantarum: +
Lactobacillus plantarum [1]; concentration 6.326 %, 30 minutes
  Growth observed after recovering viable Lactobacillus plantarum: +
Lactobacillus plantarum [1]; concentration 6.326 %, 4 hours
  Growth observed after recovering viable Lactobacillus plantarum: +
Lactobacillus plantarum [1]; concentration 6.326 %, 24 hours
  Growth observed after recovering viable Lactobacillus plantarum: +
Lactobacillus plantarum [2]; stock concentration 6.326 %, n = 3
  Growth: Yes
Lactobacillus plantarum [2]; stock concentration 6.326 %, n = 3, listed as zinc gluconate
  Growth: Growth of L. plantarum was observed
Lactobacillus plantarum [3]; 24 hours contact time, at all concentrations tested (Table 6)
  Growth of L. plantarum: Growth was observed
Lactobacillus plantarum [3]; 24 hours contact time
  Minimum concentration at which growth was observed (%): 6.326%
Lactobacillus plantarum [3]; concentration 0.049 %
  Growth observed after recovering viable Lactobacillus plantarum: +
Lactobacillus plantarum [3]; concentration 0.099 %
  Growth observed after recovering viable Lactobacillus plantarum: +
Lactobacillus plantarum [3]; concentration 0.198 %
  Growth observed after recovering viable Lactobacillus plantarum: +
Lactobacillus plantarum [3]; concentration 0.395 %
  Growth observed after recovering viable Lactobacillus plantarum: +
Lactobacillus plantarum [3]; concentration 0.791 %
  Growth observed after recovering viable Lactobacillus plantarum: +
Lactobacillus plantarum [3]; concentration 1.582 %
  Growth observed after recovering viable Lactobacillus plantarum: +
Lactobacillus plantarum [3]; concentration 3.163 %
  Growth observed after recovering viable Lactobacillus plantarum: +
Lactobacillus plantarum [3]; concentration 6.326 %
  Growth observed after recovering viable Lactobacillus plantarum: +
